From PubChem BioAssay AID602470 (Southern Research Specialized Biocontainment Screening …, 2012)
The source made the active and inactive calls. No rule for the calls is given here.

Columns and labels:
[1] = anti-RSV activity in infected cells – counter-screen for VEEV inhibitor project, dose response (AID 602470); settings: RSV-infected cells, antiviral CPE inhibition; at 12.5 µM (top of the series)
[2] = tested on: RSV-infected cells, antiviral CPE inhibition; test: as above

Structure (SMILES)	inhibition [1]	IC50 [2]
CCN1CCN(Cc2nc3ccc([N+](=O)[O-])cc3c(=O)n2-c2ccccc2F)CC1	38.2% (inactive)	–
CN1CCN(Cc2nc3ccc([N+](=O)[O-])cc3c(=O)n2-c2ccccc2F)CC1	31.6% (inactive)	–
CN(C(=O)Cc1cccs1)c1nc2c(s1)CCCC2	–	680 nM
